Measurements reported in PubChem BioAssay AID488800 (Sanford-Burnham Center for Chemical Genomics, 2010).
Calls of active or inactive are those of the source. Cut-off not given; nearly all actives show IC50 up to about 10 µM.

The molecules below were run against yeast expressing human caspase-1/ASC, counter-screen read-out (assay: interleukin-1beta converting enzyme-PYCARD signal blockade in yeast, concentration-response testing, counterassay for cryopyrin inhibitor project (AID 488800)).

Q: `CC(N)C(=O)OC(C)(C)Cc1ccc(Cl)cc1` (stereo not drawn) was tested. Which IC50 did it give?
A: Its IC50 is 4.3 µM.

Q: How did the IC50 turn out when `CN(CCOc1ccccc1)c1ccc(S(=O)(=O)N2CCCCC2)cn1` was run?
A: The IC50 was 5.1 µM.

Q: `O=C(NCCCc1ccccc1)c1c(O)nc2sccn2c1=O` was tested. Which IC50 did it give?
A: The IC50 was 2.42 µM.

Q: For `CCCCCCCCCn1c2c(c(=N)c3c1CCC3)CCC2`, which IC50 is on record?
A: The IC50 was 6.26 µM.

Q: `Nc1ccc(Oc2cc(N)cc(Oc3ccccc3)c2)cc1` was tested. Which IC50 did it give?
A: The IC50 was 4.58 µM.

Q: How did the IC50 turn out when `CCN(CC)c1ccc2nc3ccccc3[n+](CC)c2c1` was run?
A: Its IC50 is 6.23 µM.

Q: For `N#Cc1ccc(NC(=O)Nc2ccc(Cl)cc2)cc1`, which IC50 is on record?
A: The IC50 was 2.98 µM.

Q: How did the IC50 turn out when `CCN1/C(=C/C=C/c2oc3ccc(-c4ccccc4)cc3[n+]2CC)Oc2ccc(-c3ccccc3)cc21` was run?
A: Its IC50 is 8.93 µM.

Q: How did the IC50 turn out when `c1ccc(Sc2cccc3ccccc23)c(CNC2=NCCN2)c1` was run?
A: Its IC50 is 7.62 µM.

Q: Which IC50 does the source give for `O=c1cc(-c2ccccc2Cl)oc2ccc([N+](=O)[O-])c(O)c12` here?
A: Its IC50 is 1.89 µM.

Q: Which IC50 does the source give for `CCN(CC)c1ccc2nc3ccc(N)cc3[n+](-c3ccccc3)c2c1` here?
A: The IC50 was 1.08 µM.

Q: For `C=CCc1c(C)nc(C)nc1N/N=C/c1ccccc1O`, which IC50 is on record?
A: The IC50 was 9.37 µM.

Q: `COc1c(OC(C)=O)c(=O)n2c3ccccc3c3ccnc1c32` was tested. Which IC50 did it give?
A: Its IC50 is 0.665 µM.

Q: Which IC50 does the source give for `CC(=O)N(/N=C1\Sc2ccccc2C1=O)c1ccccc1C` here?
A: Its IC50 is 4.55 µM.

Q: How did the IC50 turn out when `Oc1c(/C=N/c2ccccn2)sc2ccccc12` was run?
A: The IC50 was 3.8 µM.

Q: With `Cn1c(=O)c(C(=O)NNC(=O)c2ccccc2F)c(O)c2ccccc21` as the molecule, how does the IC50 read?
A: The IC50 was 1.56 µM.

Q: `COc1ccc(CNC(=O)c2c(C)oc3c2C(=O)c2ccccc2C3=O)cc1` was tested. Which IC50 did it give?
A: Its IC50 is 3.11 µM.

Q: Which IC50 does the source give for `Cc1csc2nc(O)c(C(=O)NCCC3=CCCCC3)c(=O)n12` here?
A: Its IC50 is 2.33 µM.

Q: How did the IC50 turn out when `CN(CC(=O)N1CCc2ccccc2C1)c1ccccc1` was run?
A: Its IC50 is 2.22 µM.

Q: With `O=C(Nc1cccc(Cl)c1)c1cc(N=Nc2ccc([N+](=O)[O-])cc2Cl)ccc1O` as the molecule, how does the IC50 read?
A: Its IC50 is 0.566 µM.

Q: `O=C(Nc1cccc(Cl)c1)c1cnn2cccnc12` was tested. Which IC50 did it give?
A: The IC50 was 4.35 µM.

Q: Which IC50 does the source give for `O=C(NCCC1=CCCCC1)c1c(O)nc2sccn2c1=O` here?
A: Its IC50 is 2.24 µM.

Q: Which IC50 does the source give for `O=c1c2cc(Cl)ccc2nc(-c2ccc([N+](=O)[O-])cc2)n1O` here?
A: Its IC50 is 2.7 µM.

Q: How did the IC50 turn out when `O=C(Nc1cccc(Br)c1)c1cc2ccccc2o1` was run?
A: Its IC50 is 3.37 µM.

Q: Which IC50 does the source give for `CCCCCNC(=O)C(=O)C1C(=O)Nc2ccccc21` (stereo not drawn) here?
A: Its IC50 is 1.78 µM.

Q: For `O=c1c2cc(Br)ccc2nc(-c2ccc([N+](=O)[O-])cc2)n1O`, which IC50 is on record?
A: Its IC50 is 2.39 µM.

Q: With `C[C@@H]1C[C@@H]2O[C@H]2/C=C\C=C\C(=O)Cc2c(Cl)c(O)cc(O)c2C(=O)O1` as the molecule, how does the IC50 read?
A: Its IC50 is 5.66 µM.

Q: `CCOC(=O)N1C(=O)C2(CCCCC2)N(c2ccccc2Cl)C1=S` was tested. Which IC50 did it give?
A: The IC50 was 10.6 µM.

Q: Which IC50 does the source give for `O=C(NC(=S)NNC(=O)c1ccccc1O)c1ccc(F)cc1` here?
A: The IC50 was 1.82 µM.

Q: For `CC(=O)Oc1c(I)cc(I)cc1C(=O)Nc1ccc(Cl)cc1`, which IC50 is on record?
A: The IC50 was 0.813 µM.

Q: `CCOC(=O)c1ccc2c(c1)nc(COc1ccc(OC)cc1)n2CC` was tested. Which IC50 did it give?
A: The IC50 was 9.83 µM.

Q: With `O=C(CCS(=O)(=O)c1ccccc1)N(CCCN1CCOCC1)c1nc2c(F)cccc2s1` as the molecule, how does the IC50 read?
A: Its IC50 is 1.05 µM.

Q: `Brc1ccc(-n2cnc(-c3ccccc3)c2)cc1` was tested. Which IC50 did it give?
A: The IC50 was 10.1 µM.

Q: How did the IC50 turn out when `CCC1Nc2ncnc(N3CCN(c4ccccn4)CC3)c2N(Cc2ccc(Cl)cc2)C1=O` (stereo not drawn) was run?
A: Its IC50 is 3.32 µM.

Q: For `c1ccc(C2Nc3ccccc3C3OCCCC23)cc1` (stereo not drawn), which IC50 is on record?
A: The IC50 was 0.881 µM.

Q: Which IC50 does the source give for `COc1cccc(NC(=O)c2ccccc2)c1` here?
A: The IC50 was 4.54 µM.

Q: For `Cc1ccc(NC(=O)c2nc(S(=O)(=O)Cc3ccccc3)ncc2Cl)cc1`, which IC50 is on record?
A: Its IC50 is 1.67 µM.

Q: For `Cn1c(=O)c(C(=O)Nc2ncccn2)c(O)c2ccccc21`, which IC50 is on record?
A: Its IC50 is 3.18 µM.

Q: How did the IC50 turn out when `O=C(Nc1scc(-c2ccccc2)c1C(=O)O)c1ccc(F)cc1` was run?
A: Its IC50 is 4.03 µM.

Q: `CCCOc1ccc(C(=O)NNC(=S)NC(=O)c2cccs2)cc1` was tested. Which IC50 did it give?
A: The IC50 was 2.93 µM.

Q: With `Cc1onc(-c2ccccc2Cl)c1C(=O)N1C=CC(C(F)(F)F)=NCC1` as the molecule, how does the IC50 read?
A: The IC50 was 6.51 µM.

Q: How did the IC50 turn out when `COc1ccc(NC(=O)C#Cc2ccccc2)cc1` was run?
A: The IC50 was 1.44 µM.

Q: Which IC50 does the source give for `CCC1Nc2ncnc(N3CCN(c4ccccn4)CC3)c2N(Cc2ccc(Br)cc2)C1=O` (stereo not drawn) here?
A: The IC50 was 3.3 µM.

Q: `O=C(NNC(=S)NC(=O)c1ccc(Br)cc1)c1ccc([N+](=O)[O-])cc1` was tested. Which IC50 did it give?
A: Its IC50 is > 100 µM (inactive).

Q: `Cc1cccc(C(=O)O/N=C(\N)Cc2cccc3ccccc23)c1` was tested. Which IC50 did it give?
A: Its IC50 is 1.72 µM.

Q: `O=c1c2ccc(Cl)cc2nc(-c2cccc(C(F)(F)F)c2)n1O` was tested. Which IC50 did it give?
A: The IC50 was 2.67 µM.

Q: `CCCCCC(=O)N1CCN(CCN=CC2=C(O)CC(c3ccco3)CC2=O)CC1` (stereo not drawn) was tested. Which IC50 did it give?
A: Its IC50 is 8.62 µM.

Q: Which IC50 does the source give for `O=C(Nc1ccc(Cl)cc1)Nc1ccc(Cl)c(Cl)c1` here?
A: The IC50 was 0.805 µM.

Q: For `COc1cc(CNCCc2ccccc2)ccc1OCc1ccc(Cl)nc1`, which IC50 is on record?
A: Its IC50 is 4.86 µM.

Q: With `CCCC1CCC(c2ccc(OCC)cc2)=CC1=O` (stereo not drawn) as the molecule, how does the IC50 read?
A: Its IC50 is 4.85 µM.

Q: With `CC(C)NC(=O)c1c(O)c2ccccc2[nH]c1=O` as the molecule, how does the IC50 read?
A: The IC50 was 1.19 µM.

Q: With `CCCCCCCCn1c2c(c(=N)c3ccccc31)CCC2` as the molecule, how does the IC50 read?
A: The IC50 was 8.75 µM.

Q: `CCSc1nsc(NC(=O)Nc2cccc(F)c2)n1` was tested. Which IC50 did it give?
A: The IC50 was 1.22 µM.
